Experimental data reported in US11771662B2, “Analgesic formulation for control of pain in dogs” (Kansas State University Research Foundation, priority 2017, dated 2023).
Where “and” joins values, the source holds several entries; their conditions need not be identical. Equal values may be shown once.

Key:
[1] = Plasma methadone concentrations by liquid chromatography/triple quadrupole mass spectrometry (Example I); details: methadone alone 1 mg/kg PO, Dog 1-6
[2] = tested on: dogs undergoing ovariohysterectomy; experiment: Postoperative pain: Glasgow Composite Pain Scale and need for rescue analgesic (Example IV); details: 0.5 mg/kg SC q 4 h; total 13
[3] = tested on: dogs undergoing ovariohysterectomy; experiment: Pre-anesthetic sedation in ovariohysterectomy clinical trial (Example IV); details: 0.5 mg/kg SC q 4 h; with acepromazine 0.05 mg/kg SC
in vivo = experiment: in vivo
Method: Five healthy mixed breed, purpose bred dogs were included in this study. […] Blood was obtained immediately prior to the 4 hour dose (i.e. a trough sample).

[4] = humans; cited from earlier work
[5] = tested on: dogs undergoing ovariohysterectomy; experiment: Adverse effects in ovariohysterectomy clinical trial (Example IV); details: injection group, 0.5 mg/kg SC q 4 h
healthy dogs = experiment: Sedation assessment after oral methadone alone or with oral fluconazole (Example I); format: in vivo, dog; details: methadone alone 1 mg/kg PO
[6] = tested on: dogs undergoing ovariohysterectomy; experiment: Ease of IV catheter placement in ovariohysterectomy clinical trial (Example IV); details: 0.5 mg/kg SC q 4 h; with acepromazine 0.05 mg/kg SC
[7] = Plasma methadone, naltrexone and naltrexone metabolites, multiple oral doses (Example III); format: in vivo, dog; details: oral methadone/fluconazole/naltrexone formulation, both groups; throughout dosing and at least 12 hours after the last dose
Excerpt: Twelve healthy Beagle dogs were divided into two groups of 6 each in a parallel study design. […] Group 1 simulated a patient dropped off the night before surgery, while Group 2 simulated a patient dropped off in the morning for same day early afternoon surgery. Rectal temperature was monitored as a marker of central opioid effects throughout the study and von Frey thresholds were obtained to assess the antinociceptive effects.

[8] = tested on: dogs undergoing ovariohysterectomy; experiment: Sedation scores at each time point in ovariohysterectomy clinical trial (Example IV); details: 0.5 mg/kg SC q 4 h

Compound: CCC(=O)C(CC(C)N(C)C)(c1ccccc1)c1ccccc1 (racemic) [methadone]
- Plasma methadone concentration, individual dogs ([1]; 4 hr): <0.5 ng/mL (2×) and 1.0 ng/mL and 0.5 ng/mL and 0.7 ng/mL
- Plasma methadone concentration, individual dogs ([1]; 6 hr): <0.5 ng/mL
- Plasma methadone concentration, individual dogs ([1]; 8 hr): <0.5 ng/mL
- Plasma methadone concentration, individual dogs ([1]; 12 hr): <0.5 ng/mL
- Plasma methadone concentration, individual dogs ([1]; 24 hr): <0.5 ng/mL
- Treatment Outcome: Failure (number of dogs, rescue analgesic needed) [2]: 0
- Treatment Outcome: Success (number of dogs, no rescue analgesic) [2]: 13
- Pre-anesthetic sedation: A. None - no apparent effect (number of dogs) [3]: 0
- Pre-anesthetic sedation: B. Mild - drowsy, but still active (number of dogs) [3]: 7
- Pre-anesthetic sedation: C. Moderate - drowsy, glazed eyes, but still able to walk without assistance (number of dogs) [3]: 3
- Pre-anesthetic sedation: D. Heavy - Very drowsy, unable to walk or requires assistance to walk (number of dogs) [3]: 3
- Persistence of methadone plasma concentrations compared to the standard formulation of methadone (in vivo; injectable opioid formulation containing an azole antifungal): persisted longer
- Time to which methadone plasma concentrations persisted (in vivo; injectable opioid formulation containing an azole antifungal, SC at 0 and 4 h, one dog): at least 32 hours
- concentration at 32 h (in vivo; mixed breed, dog, in vivo, sc): 4 ng/mL
- Increase in methadone drug exposure when fluconazole is administered with methadone [4]: 30-35%
- Perioperative nausea or vomiting (dogs affected/dogs in group) [5]: 2/13
- Sedation (healthy dogs): not noted in any of the dogs at any time point
- IV Catheter placement: A. Unable to restrain the dog (number of dogs) [6]: 0
- IV Catheter placement: B. The dog was restrained, but was difficult (number of dogs) [6]: 2
- IV Catheter placement: C. The dog was restrained with little effort (number of dogs) [6]: 8
- IV Catheter placement: D. The dog was unable to sit sternal and had to be supported (number of dogs) [6]: 3
- Mean plasma concentration of methadone [7]: exceeded 10 ng/mL
- Sedation Score Moderate (number of dogs) ([8]; Day 0 5:00 PM): 0
- Sedation Score None (number of dogs) ([8]; Day 0 5:00 PM): 13
- Sedation Score Profound (number of dogs) ([8]; Day 0 5:00 PM): 0
- Sedation Score Slight (number of dogs) ([8]; Day 0 5:00 PM): 0
- Sedation Score Moderate (number of dogs) ([8]; Day 1 1:00 PM): 3
- Sedation Score None (number of dogs) ([8]; Day 1 1:00 PM): 1
- Sedation Score Profound (number of dogs) ([8]; Day 1 1:00 PM): 3
- Sedation Score Slight (number of dogs) ([8]; Day 1 1:00 PM): 6
- Sedation Score Moderate (number of dogs) ([8]; Day 1 4:00 PM): 0
- Sedation Score None (number of dogs) ([8]; Day 1 4:00 PM): 5
- Sedation Score Profound (number of dogs) ([8]; Day 1 4:00 PM): 0
- Sedation Score Slight (number of dogs) ([8]; Day 1 4:00 PM): 8
- Sedation Score Moderate (number of dogs) ([8]; Day 1 6:00 PM): 1
- Sedation Score None (number of dogs) ([8]; Day 1 6:00 PM): 4
- Sedation Score Profound (number of dogs) ([8]; Day 1 6:00 PM): 0
- Sedation Score Slight (number of dogs) ([8]; Day 1 6:00 PM): 8
- Sedation Score Moderate (number of dogs) ([8]; Day 1 8:00 PM): 0
- Sedation Score None (number of dogs) ([8]; Day 1 8:00 PM): 9
- Sedation Score Profound (number of dogs) ([8]; Day 1 8:00 PM): 0
- Sedation Score Slight (number of dogs) ([8]; Day 1 8:00 PM): 6
- Sedation Score Moderate (number of dogs) ([8]; Day 1 12:00 PM): 1
- Sedation Score None (number of dogs) ([8]; Day 1 12:00 PM): 2
- Sedation Score Profound (number of dogs) ([8]; Day 1 12:00 PM): 0
- Sedation Score Slight (number of dogs) ([8]; Day 1 12:00 PM): 10
- Sedation Score Moderate (number of dogs) ([8]; Day 2 5:00 PM): 0
- Sedation Score None (number of dogs) ([8]; Day 2 5:00 PM): 13
- Sedation Score Profound (number of dogs) ([8]; Day 2 5:00 PM): 0
- Sedation Score Slight (number of dogs) ([8]; Day 2 5:00 PM): 0
- Sedation Score Moderate (number of dogs) ([8]; Day 2 6:30 AM): 0
- Sedation Score None (number of dogs) ([8]; Day 2 6:30 AM): 13
- Sedation Score Profound (number of dogs) ([8]; Day 2 6:30 AM): 0
- Sedation Score Slight (number of dogs) ([8]; Day 2 6:30 AM): 0
- Sedation Score Moderate (number of dogs) ([8]; Day 3 7:00 AM): 0
- Sedation Score None (number of dogs) ([8]; Day 3 7:00 AM): 13
- Sedation Score Profound (number of dogs) ([8]; Day 3 7:00 AM): 0
- Sedation Score Slight (number of dogs) ([8]; Day 3 7:00 AM): 0
